# Assay results taken from ChEMBL document CHEMBL3792301, “Isatin derivatives with activity against apoptosis-resistant cancer cells” (Bioorg Med Chem Lett, 2016).
# How the values were obtained:
# A549 = experiment: Antiproliferative activity against apoptosis resistant human A549 cells after 72 hrs by MTT assay; type: functional, cell-based; conditions: A549, 72 h
# [1] = Antiproliferative activity against apoptosis sensitive human PC3 cells after 72 hrs by MTT assay; type: functional, cell-based; conditions: PC-3, 72 h
# [2] = Antiproliferative activity against apoptosis resistant human U373 cells after 72 hrs by MTT assay; type: functional, cell-based, U-373MG ATCC; conditions: U373 MG
# MCF7 = experiment: Antiproliferative activity against apoptosis sensitive human MCF7 cells after 72 hrs by MTT assay; type: functional, cell-based; conditions: MCF7, 72 h
# LoVo = experiment: Antiproliferative activity against human LoVo cells after 72 hrs by MTT assay; type: functional, cell-based
# SK-MEL-28 = experiment: Antiproliferative activity against apoptosis resistant human SK-MEL-28 cells after 72 hrs by MTT assay; type: functional, cell-based; conditions: SK-MEL-28, 72 h
# [3] = Antiproliferative activity against apoptosis resistant human OE21 cells after 72 hrs by MTT assay; type: functional, cell-based; conditions: OE21, 72 h
# [4] = Antiproliferative activity against apoptosis sensitive human Hs683 cells after 72 hrs by MTT assay; type: functional, cell-based; conditions: Hs 683, 72 h
# [5] = Antiproliferative activity against apoptosis sensitive mouse B16F10 cells after 72 hrs by MTT assay; type: functional, cell-based; conditions: B16-F10, 72 h
Compound,IC50 (A549),IC50 (MCF7),IC50 (LoVo),IC50 (SK-MEL-28),IC50 [1],IC50 [2],IC50 [3],IC50 [4],IC50 [5]
O=C1Nc2c(Br)cccc2/C1=C1/Nc2ccccc2/C1=N\O,13.9 µM,4.9 µM,5.6 µM,9.8 µM,7.8 µM,6.6 µM,3.9 µM,8.1 µM,5.3 µM
O=C1NC(=S)S/C1=C1\C(=O)Nc2ccccc21,99 µM,> 100 µM,69.3 µM,96.6 µM,> 100 µM,85.3 µM,47.2 µM,93.3 µM,73.5 µM
O=C1NC(=O)/C(=C2/C(=O)Nc3ccccc32)S1,60.7 µM,> 100 µM,5.2 µM,> 100 µM,67.5 µM,86.4 µM,38 µM,89.7 µM,2.8 µM
O=C1Nc2c(Cl)cccc2/C1=C1/Nc2ccccc2/C1=N\O,45.2 µM,27.5 µM,10.2 µM,40.1 µM,29.7 µM,31.5 µM,19.6 µM,25.3 µM,12.9 µM
O=C1Nc2c(F)cccc2/C1=C1/Nc2ccccc2/C1=N\O,33.3 µM,26.2 µM,9 µM,44.6 µM,26 µM,19.7 µM,9.2 µM,9.3 µM,7.8 µM
O=C1NC(=O)/C(=C2/C(=O)Nc3ccccc32)N1,66.5 µM,94.6 µM,76.1 µM,> 100 µM,95.5 µM,> 100 µM,52.3 µM,84.7 µM,73.3 µM
O=C1NC(=S)N/C1=C1\C(=O)Nc2c(Br)cccc21,3.8 µM,51 µM,37 µM,11.7 µM,22.8 µM,4.7 µM,20.2 µM,40.8 µM,5 µM
O=C1Nc2ccc(Br)cc2/C1=C1/Cc2ccccc2C1=O,> 100 µM,65.2 µM,52.8 µM,> 100 µM,> 100 µM,41.4 µM,56 µM,47.3 µM,69.1 µM
O=C1NC(=S)S/C1=C1\C(=O)Nc2ccc(Br)cc21,36.2 µM,82.9 µM,52.1 µM,53.5 µM,44.3 µM,41.7 µM,62.5 µM,93.6 µM,0.1 µM
O=C1NC(=S)N/C1=C1\C(=O)Nc2ccccc21,45.8 µM,87.8 µM,60.2 µM,62.9 µM,75.5 µM,51.9 µM,38.7 µM,52.9 µM,41.6 µM
O=C1Nc2ccc(Br)cc2/C1=C1/Nc2ccccc2/C1=N\O [INDIRUBIN 2],7.2 µM,5.8 µM,6.6 µM,17.3 µM,6.8 µM,8 µM,3.6 µM,8.4 µM,0.5 µM
CC1(C)CCC2=C(O1)c1ccccc1C(=O)C2=O [LAPACHONE],0.8 µM,0.5 µM,0.3 µM,0.6 µM,< 0.01 µM,0.4 µM,0.6 µM,0.4 µM,0.3 µM

# The next lines start with results.
IC50 (A549),IC50 (MCF7),IC50 (LoVo),IC50 (SK-MEL-28),Compound,IC50 [1],IC50 [2],IC50 [3],IC50 [4],IC50 [5]
> 100 µM,37.3 µM,12 µM,> 100 µM,O=C1Nc2ccc(Br)cc2/C1=C1/Nc2ccccc2C1=O,> 100 µM,8.6 µM,3.8 µM,14.1 µM,3.8 µM
27 µM,9.2 µM,8.9 µM,26.6 µM,O=C1Nc2ccccc2/C1=C1/Nc2ccccc2/C1=N\O,24.3 µM,18 µM,8.1 µM,6 µM,5.4 µM
> 100 µM,> 100 µM,> 100 µM,> 100 µM,O=C1Nc2c(Cl)cccc2/C1=C1/Nc2ccccc2C1=O,> 100 µM,> 100 µM,35.3 µM,55.2 µM,15.7 µM
> 100 µM,44.8 µM,42 µM,> 100 µM,O=C1Nc2c(F)cccc2/C1=C1/Nc2ccccc2C1=O,> 100 µM,45.8 µM,29 µM,38.7 µM,16.3 µM
> 100 µM,70.2 µM,52.6 µM,> 100 µM,O=C1Nc2ccccc2/C1=C1/Cc2ccccc2C1=O,> 100 µM,> 100 µM,25.1 µM,> 100 µM,> 100 µM
28.7 µM,38.5 µM,18.7 µM,33.7 µM,O=C1Nc2ccccc2/C1=C1/Cc2ccccc2/C1=N\O,33.1 µM,28 µM,27.8 µM,22.9 µM,32.6 µM
23.3 µM,0.3 µM,4.1 µM,23.8 µM,O=C1Nc2ccccc2/C1=C1/Oc2ccccc2C1=O,36.1 µM,27.7 µM,25.9 µM,25.7 µM,< 0.01 µM
> 100 µM,52.8 µM,32.3 µM,> 100 µM,O=C1Nc2c(Br)cccc2/C1=C1/Nc2ccccc2C1=O,> 100 µM,8.1 µM,8.7 µM,6.9 µM,3.2 µM
> 100 µM,> 100 µM,> 100 µM,> 100 µM,O=C1Nc2ccccc2/C1=C1/Nc2ccccc2C1=O [INDIRUBIN],> 100 µM,> 100 µM,30.5 µM,> 100 µM,0.2 µM
